Assay results: patent US20240351997A1, “NOVEL PARP7 INHIBITOR AND USE THEREOF” (SHANGHAI QILU PHARMACEUTICAL RESEARCH AND DEVELOPMENT …, priority 2021, published 2024)

Molecular target: PARP7 (Homo sapiens (Human), UniProt Q7Z3E1)
Assay: In vitro enzymology experiment of PARP7 (enzymatic inhibition)
Type: biochemical
Description: II. In Vitro Enzymology Experiment of PARP2, 3, 5A, 5B, 7, 12, and 15
1. Preparation of 384-well histone-coated plate: 25 μL of histone solution was added to each well, and the plate was incubated overnight at 4° C.
2. Preparation of PBST buffer, blocking buffer, and assay buffer
3. The 384-well histone-coated plate was washed three times with PBST buffer. The plate was blocked by 50 μL of blocking buffer for 1 hour at room temperature. The plate was then washed three times with PBST buffer.
2000× compound was prepared in a 96-well source plate. 50 nL of the compound was transferred from the source plate to a 96-well intermediate plate, and 39.95 μL of assay buffer was added to each well. The plate was shaken well and centrifuged at 1000 rpm for 1 minute.
5 μL of compound DMSO solution was transferred to each well.
An enzyme mixture was incubated at 25° C. for 10 minutes.
10 μL of the enzyme mixture was added, and incubated with the compound at room temperature for 10 minutes.
10 μL of assay buffer was added to the negative control well of the assay plate.
The plate was then washed three times with PBST buffer.
25 μL of Stre-HRP was added.
The plate was incubated at room temperature for 1 hour and washed three times with PBS buffer.
25 μL of QuantaRed Enhancer mix was added. The plate was incubated for 10 minutes.
2.5 μL of QuantaRed Stop Solution was added to terminate the peroxidase reaction, and the plate was shaken for 10 to 30 seconds.
7. Paradigm was used to read the plate immediately to detect the readings at Ex550/Em620.
Using equation (1) to fit the data in Excel to obtain inhibition values
Using equation (2) to fit the data in XL-Fit to obtain IC50 values
Y is the percentage of inhibition, and X is the compound concentration.

Chain of PARP7 (Q7Z3E1 whole entry): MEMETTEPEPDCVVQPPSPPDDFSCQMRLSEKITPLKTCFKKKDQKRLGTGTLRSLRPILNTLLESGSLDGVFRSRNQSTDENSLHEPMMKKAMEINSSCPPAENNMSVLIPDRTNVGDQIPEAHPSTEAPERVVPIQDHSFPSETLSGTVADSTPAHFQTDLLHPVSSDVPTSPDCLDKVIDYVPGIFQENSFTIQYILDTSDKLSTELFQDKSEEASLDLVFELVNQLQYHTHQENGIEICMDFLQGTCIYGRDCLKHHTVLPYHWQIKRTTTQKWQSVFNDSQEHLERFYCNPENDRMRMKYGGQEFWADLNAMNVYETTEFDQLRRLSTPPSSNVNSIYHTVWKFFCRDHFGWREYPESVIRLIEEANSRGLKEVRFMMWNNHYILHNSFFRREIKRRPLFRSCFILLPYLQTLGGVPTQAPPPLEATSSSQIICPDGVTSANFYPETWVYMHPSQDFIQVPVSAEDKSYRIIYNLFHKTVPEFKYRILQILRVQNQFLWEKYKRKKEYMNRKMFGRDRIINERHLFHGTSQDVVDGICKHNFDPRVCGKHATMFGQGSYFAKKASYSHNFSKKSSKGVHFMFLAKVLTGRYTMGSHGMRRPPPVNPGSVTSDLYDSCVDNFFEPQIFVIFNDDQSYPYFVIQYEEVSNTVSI

SMILES: O=C(O[C@@H]1CCC[C@H]1c1c[nH]c(=O)c(C(F)(F)F)c1)N1CCN(c2ncc(C(F)(F)F)cn2)CC1 (single isomer, unassigned) [Example 70]
- IC50: 0.91 nM

SMILES: COC[C@@H]1CN(c2ncc(C(F)(F)F)cn2)CCN1C(=O)OCCc1c[nH]c(=O)c(C(F)(F)F)c1 (stereo in doubt) [Example 129, 2-(6-Oxo-5-(trifluoromethyl)-1,6-dihydropyridin-3-yl)ethyl 2-(methoxymethyl)-4-(5-(trifluoromethyl)pyrimidin-2-yl)piperazine-1-carboxylate]
- IC50: 0.39 nM

SMILES: O=C(Cc1cc(C(F)(F)F)c(=O)[nH]n1)NCC(=O)N1CCN(c2ncc(C(F)(F)F)cn2)CC1 [Example 5, N-(2-Oxo-2-(4-(5-(trifluoromethyl)pyrimidin-2-yl)piperazin-1-yl)ethyl)-2-(6-oxo-5-(trifluoromethyl)-1,6-dihydropyridazin-3-yl)acetamide]
- IC50: 5.83 nM

SMILES: O=C(COC[C@@H]1CCCN1c1c[nH]c(=O)c(C(F)(F)F)c1)N1CCN(c2ncc(C(F)(F)F)cn2)CC1 [Example 7, (S)-5-(2-((2-Oxo-2-(4-(5-(trifluoromethyl)pyrimidin-2-yl)piperazin-1-yl)ethoxy)methyl)pyrrolidin-1-yl)-3-(trifluoromethyl)pyridin-2(1H)-one]
- IC50: 2.79 nM

SMILES: O=C(CCOC[C@@H]1CCCN1c1c[nH]c(=O)c(C(F)(F)F)c1)N1CCN(c2ncc(C(F)(F)F)cn2)CC1 [Example 9, (S)-5-(2-((3-Oxo-3-(4-(5-(trifluoromethyl)pyrimidin-2-yl)piperazin-1-yl)propoxy)methyl)pyrrolidin-1-yl)-3-(trifluoromethyl)pyridin-2(1H)-one]
- IC50: 7.6 nM

SMILES: O=C(CCOC[C@H]1CCCN1c1c[nH]c(=O)c(C(F)(F)F)c1)N1CCN(c2ncc(C(F)(F)F)cn2)CC1 [Example 10, (R)-5-(2-((3-Oxo-3-(4-(5-(trifluoromethyl)pyrimidin-2-yl)piperazin-1-yl)propoxy)methyl)pyrrolidin-1-yl)-3-(trifluoromethyl)pyridin-2(1H)-one]
- IC50: 6.7 nM

SMILES: O=C(CCOCCN1CCCc2c1cn[nH]c2=O)N1CCN(c2ncc(C(F)(F)F)cn2)CC1 [Example 13, 1-(2-(3-Oxo-3-(4-(5-(trifluoromethyl)pyrimidin-2-yl)piperazin-1-yl)propoxy)ethyl)-2,3,4,6-tetrahydropyrido[2,3-d]pyridazin-5(1H)-one]
- IC50: 5.98 nM

SMILES: O=C(CCOc1c[nH]c(=O)c(C(F)(F)F)c1)N1CCN(c2ncc(C(F)(F)F)cn2)CC1 [Example 17, 5-(3-Oxo-3-(4-(5-(trifluoromethyl)pyrimidin-2-yl)piperazin-1-yl)propoxy)-3-(trifluoromethyl)pyridin-2(1H)-one]
- IC50: 2.79 nM

SMILES: O=C(CCOCCn1c(=O)ccc2c(=O)[nH]ncc21)N1CCN(c2ncc(C(F)(F)F)cn2)CC1 [Example 22, 1-(2-(3-Oxo-3-(4-(5-(trifluoromethyl)pyrimidin-2-yl)piperazin-1-yl)propoxy)ethyl)pyrido[2,3-d]pyridazine-2,5(1H,6H)-dione]
- IC50: 3.6 nM

SMILES: CC(COC(=O)N1CCN(c2ncc(C(F)(F)F)cn2)CC1)c1c[nH]c(=O)c(C(F)(F)F)c1 (centres unmarked) [Example 25, 2-(6-Oxo-5-(trifluoromethyl)-1,6-dihydropyridin-3-yl)propyl 4-(5-(trifluoromethyl)pyrimidin-2-yl)piperazine-1-carboxylate]
- IC50: 0.8 nM

SMILES: C[C@H](COC(=O)N1CCN(c2ncc(C(F)(F)F)cn2)CC1)c1c[nH]c(=O)c(C(F)(F)F)c1 [Example 26]
- IC50: 0.6 nM

SMILES: C[C@@H](COC(=O)N1CCN(c2ncc(C(F)(F)F)cn2)CC1)c1c[nH]c(=O)c(C(F)(F)F)c1 [Example 27]
- IC50: 1.1 nM

SMILES: O=C(CCc1c[nH]c(=O)c(C(F)(F)F)c1)N1CCN(c2ncc(C(F)(F)F)cn2)CC1 [Example 28, 5-(3-Oxo-3-(4-(5-(trifluoromethyl)pyrimidin-2-yl)piperazin-1-yl)propyl)-3-(trifluoromethyl)pyridin-2(1H)-one]
- IC50: 0.9 nM

SMILES: O=C(OC[C@@H]1CCCN1c1c[nH]c(=O)c(C(F)(F)F)c1)N1CCN(c2ncc(C(F)(F)F)cn2)CC1 [Example 29, (S)-(1-(6-Oxo-5-(trifluoromethyl)-1,6-dihydropyridin-3-yl)pyrrolidin-2-yl)methyl 4-(5-(trifluoromethyl)pyrimidin-2-yl)piperazine-1-carboxylate]
- IC50: 5.6 nM

SMILES: O=C(c1cccc(Cc2c[nH]c(=O)c(C(F)(F)F)c2)c1)N1CCN(c2ncc(C(F)(F)F)cn2)CC1 [Example 30, 3-(Trifluoromethyl)-5-(3-(4-(5-(trifluoromethyl)pyrimidin-2-yl)piperazine-1-carbonyl)benzyl)pyridin-2(1H)-one]
- IC50: 0.9 nM

SMILES: O=C(CCNc1c[nH]c(=O)c(C(F)(F)F)c1)N1CCN(c2ncc(C(F)(F)F)cn2)CC1 [Example 31, 5-((3-Oxo-3-(4-(5-(trifluoromethyl)pyrimidin-2-yl)piperazin-1-yl)propyl)amino)-3-(trifluoromethyl)pyridin-2(1H)-one]
- IC50: 1.19 nM

SMILES: O=C(NCCc1c[nH]c(=O)c(C(F)(F)F)c1)N1CCN(c2ncc(C(F)(F)F)cn2)CC1 [Example 32, N-(2-(6-Oxo-5-(trifluoromethyl)-1,6-dihydropyridin-3-yl)ethyl)-4-(5-(trifluoromethyl)pyrimidin-2-yl)piperazine-1-carboxamide]
- IC50: 0.44 nM

SMILES: CC(Cc1c[nH]c(=O)c(C(F)(F)F)c1)OC(=O)N1CCN(c2ncc(C(F)(F)F)cn2)CC1 (centres unmarked) [Example 33, 1-(6-Oxo-5-(trifluoromethyl)-1,6-dihydropyridin-3-yl)propan-2-yl 4-(5-(trifluoromethyl)pyrimidin-2-yl)piperazine-1-carboxylate]
- IC50: 0.9 nM

SMILES: O=C(OC[C@H]1CCCN1c1c[nH]c(=O)c(C(F)(F)F)c1)N1CCN(c2ncc(C(F)(F)F)cn2)CC1 [Example 36, (R)-(1-(6-Oxo-5-(trifluoromethyl)-1,6-dihydropyridin-3-yl)pyrrolidin-2-yl)methyl 4-(5-(trifluoromethyl)pyrimidin-2-yl)piperazine-1-carboxylate]
- IC50: 0.38 nM

SMILES: O=C(CCCc1c[nH]c(=O)c(C(F)(F)F)c1)N1CCN(c2ncc(C(F)(F)F)cn2)CC1 [Example 37, 5-(4-Oxo-4-(4-(5-(trifluoromethyl)pyrimidin-2-yl)piperazin-1-yl)butyl)-3-(trifluoromethyl)pyridin-2(1H)-one]
- IC50: 0.9 nM

SMILES: CC(CC(=O)N1CCN(c2ncc(C(F)(F)F)cn2)CC1)c1c[nH]c(=O)c(C(F)(F)F)c1 (centres unmarked) [Example 38, 5-(4-Oxo-4-(4-(5-(trifluoromethyl)pyrimidin-2-yl)piperazin-1-yl)butan-2-yl)-3-(trifluoromethyl)pyridin-2(1H)-one]
- IC50: 1.1 nM

SMILES: O=C(CCO[C@H]1CCC[C@@H]1c1c[nH]c(=O)c(C(F)(F)F)c1)N1CCN(c2ncc(C(F)(F)F)cn2)CC1 [Example 39, 5-((1R,2S)-2-(3-Oxo-3-(4-(5-(trifluoromethyl)pyrimidin-2-yl)piperazin-1-yl)propoxy)cyclopentyl)-3-(trifluoromethyl)pyridin-2(1H)-one]
- IC50: 1.5 nM

SMILES: O=C(c1cc(Cc2c[nH]c(=O)c(C(F)(F)F)c2)ccc1F)N1CCN(c2ncc(C(F)(F)F)cn2)CC1 [Example 40, 5-(4-Fluoro-3-(4-(5-(trifluoromethyl)pyrimidin-2-yl)piperazine-1-carbonyl)benzyl)-3-(trifluoromethyl)pyridin-2(1H)-one]
- IC50: 0.7 nM

SMILES: O=C(OCC1(c2c[nH]c(=O)c(C(F)(F)F)c2)CC1)N1CCN(c2ncc(C(F)(F)F)cn2)CC1 [Example 41, (1-(6-Oxo-5-(trifluoromethyl)-1,6-dihydropyridin-3-yl)cyclopropyl)methyl 4-(5-(trifluoromethyl)pyrimidin-2-yl)piperazine-1-carboxylate]
- IC50: 1.1 nM

SMILES: CC(Cc1c[nH]c(=O)c(C(F)(F)F)c1)OC(=O)N1CCN(c2ncccn2)CC1 (centres unmarked) [Example 42, 1-(6-Oxo-5-(trifluoromethyl)-1,6-dihydropyridin-3-yl)propan-2-yl 4-(pyrimidin-2-yl)piperazine-1-carboxylate]
- IC50: 1.46 nM

SMILES: Cc1cnc(N2CCN(C(=O)OC(C)Cc3c[nH]c(=O)c(C(F)(F)F)c3)CC2)nc1 (centres unmarked) [Example 43, 1-(6-Oxo-5-(trifluoromethyl)-1,6-dihydropyridin-3-yl)propan-2-yl 4-(5-methylpyrimidin-2-yl)piperazine-1-carboxylate]
- IC50: 0.9 nM

SMILES: CC(Cc1c[nH]c(=O)c(C(F)(F)F)c1)OC(=O)N1CCN(c2ncc(Cl)cn2)CC1 (centres unmarked) [Example 44, 1-(6-Oxo-5-(trifluoromethyl)-1,6-dihydropyridin-3-yl)propan-2-yl 4-(5-chloropyrimidin-2-yl)piperazine-1-carboxylate]
- IC50: 0.8 nM

SMILES: CC(Cc1c[nH]c(=O)c(C(F)(F)F)c1)OC(=O)N1CCN(c2ncc(C#N)cn2)CC1 (centres unmarked) [Example 45, 1-(6-Oxo-5-(trifluoromethyl)-1,6-dihydropyridin-3-yl)propan-2-yl 4-(5-cyanopyrimidine-2-yl)piperazine-1-carboxylate]
- IC50: 2.26 nM

SMILES: CC(Cc1c[nH]c(=O)c(C(F)(F)F)c1)OC(=O)N1CCN(c2ncccc2C#N)CC1 (centres unmarked) [Example 46, 1-(6-Oxo-5-(trifluoromethyl)-1,6-dihydropyridin-3-yl)propan-2-yl 4-(3-cyanopyridin-2-yl)piperazine-1-carboxylate]
- IC50: 1.94 nM
